≈ marks a conversion by molar mass, not a printed value. Non-standard residues stand in square brackets, D forms with d. Residues, ends and D or L forms follow the SMILES beside them. *: point of attachment. X3 = NC(=O)[C@H](Cc1c[nH]cn1)NC(=O)CNC(=O)[C@@H](N)CN(CCc1c[nH]c2ccccc12)*; X2 = C[C@@H](c1ccccc1)N(C[C@H](N)C(=O)NCC(=O)N[C@@H](Cc1c[nH]cn1)C(N)=O)*; X1 = NC(=O)[C@H](Cc1c[nH]cn1)NC(=O)CNC(=O)[C@@H](N)CN*; Gly(N(CH2)2(3-indolyl)) = O=C(O)CNCCc1c[nH]c2ccccc12; Nspe = C[C@H](NCC(=O)O)c1ccccc1; Nphe = O=C(O)CNCc1ccccc1; Nlys = NCCCCNCC(=O)O
Columns and labels:
[1] = tested on: Escherichia coli; test: Antibacterial activity against Escherichia coli ATCC 25922 assessed as inhibition of bacterial growth incubated for 24 hrs by broth dilution method; type: functional
[2] = tested on: Staphylococcus aureus; test: Antibacterial activity against Staphylococcus aureus ATCC 25923 assessed as inhibition of bacterial growth incubated for 24 hrs by broth dilution method; type: functional
[3] = Hemolytic activity in male Sprague-Dawley rat erythrocytes at 25 uM incubated for 1 hr by absorbance based method relative to control; type: toxicity, cell-based, Erythrocyte; conditions: read-out: Activity
[4] = Hemolytic activity in male Sprague-Dawley rat erythrocytes at 50 uM incubated for 1 hr by absorbance based method relative to control; type: toxicity, cell-based, Erythrocyte; conditions: read-out: Activity
[5] = Hemolytic activity in male Sprague-Dawley rat erythrocytes at 100 uM incubated for 1 hr by absorbance based method relative to control; type: toxicity, cell-based, Erythrocyte; conditions: read-out: Activity
[6] = tested on: Erythrocyte; test: Hemolytic activity in male Sprague-Dawley rat erythrocytes assessed as concentration required for 10% hemolysis incubated for 1 hr by absorbance based method; type: toxicity, cell-based
[7] = Hemolytic activity in male Sprague-Dawley rat erythrocytes assessed as concentration required for 50% hemolysis incubated for 1 hr by absorbance based method; type: toxicity, cell-based, Erythrocyte
[8] = Selectivity index, ratio of HC10 for hemolytic activity in male Sprague-Dawley rat erythrocytes to MIC for antibacterial activity against Escherichia coli ATCC 25922; type: toxicity; conditions: read-out: Selectivity Index

SMILES	MIC [1] [µM]	MIC [2] [µM]	hemolysis at 1 h, 25 µM [3] [%]	hemolysis at 1 h, 50 µM [4] [%]	hemolysis at 1 h, 100 µM [5] [%]	HC10 [6] [µM]	HC50 at 1 h [7] [µM]	selectivity ratio [8]
C[C@@H](c1ccccc1)N(CC(=O)N(CCCCN)CC(=O)N(CC(=O)N(CC(=O)N(CCCCN)CC(=O)N(CC(=O)N(CC(=O)N(CCCCN)CC(=O)N(CCc1c[nH]c2ccccc12)CC(=O)N(CCc1c[nH]c2ccccc12)CC(N)=O)Cc1ccccc1)Cc1ccccc1)Cc1ccccc1)Cc1ccccc1)C(=O)CN(Cc1ccccc1)C(=O)CN(CCCCN)C(=O)[C@H](Cc1c[nH]cn1)NC(=O)CNC(=O)CN (H-GGH[Nlys][Nphe][Nspe][Nlys][Nphe][Nphe][Nlys][Nphe][Nphe][Nlys][Gly(N(CH2)2(3-indolyl))][Gly(N(CH2)2(3-indolyl))]-NH2)	12.5 (≈ 26 µg/mL)	3.1 (≈ 6.44 µg/mL)	12.7	23.9	40.6	20.6	> 100	1.6
C[C@@H](c1ccccc1)N(CC(N)=O)C(=O)CN(CCCCN)C(=O)CN(C(=O)CN(C(=O)CN(CCCCN)C(=O)CN(C(=O)CN(C(=O)CN(CCCCN)C(=O)CN(C(=O)CN(C(=O)CN(CCCCN)C(=O)[C@H](Cc1c[nH]cn1)NC(=O)CNC(=O)CN)[C@@H](C)c1ccccc1)[C@@H](C)c1ccccc1)[C@@H](C)c1ccccc1)[C@@H](C)c1ccccc1)[C@@H](C)c1ccccc1)[C@@H](C)c1ccccc1 (H-GGH[Nlys][Nspe][Nspe][Nlys][Nspe][Nspe][Nlys][Nspe][Nspe][Nlys][Nspe]-NH2)	12.5 (≈ 23.9 µg/mL)	6.3 (≈ 12 µg/mL)	7.95	32	61.6	22.9	81.6	1.8
C[C@@H](c1ccccc1)N(CC(=O)N(CCCCN)CC(=O)N(CC(=O)N(CC(=O)N(CCCCN)CC(=O)N(CC(=O)N(C[C@H](N)C(=O)NCC(=O)N[C@@H](Cc1c[nH]cn1)C(N)=O)[C@@H](C)c1ccccc1)[C@@H](C)c1ccccc1)[C@@H](C)c1ccccc1)[C@@H](C)c1ccccc1)C(=O)CN(C(=O)CN(CCCCN)C(=O)CN(CCc1c[nH]c2ccccc12)C(=O)CN(CCc1c[nH]c2ccccc12)C(=O)CNCCCCN)[C@@H](C)c1ccccc1 (H-[Nlys][Gly(N(CH2)2(3-indolyl))][Gly(N(CH2)2(3-indolyl))][Nlys][Nspe][Nspe][Nlys][Nspe][Nspe][Nlys][Nspe]-X2)	25 (≈ 53 µg/mL)	3.1 (≈ 6.57 µg/mL)	8.35	14	23.8	31.9	> 100	1.2
C[C@@H](c1ccccc1)N(CC(=O)N(CCCCN)CC(=O)N(CC(=O)N(CC(=O)N(CCCCN)CC(=O)N(CC(=O)N(CC(N)=O)Cc1ccccc1)Cc1ccccc1)[C@@H](C)c1ccccc1)[C@@H](C)c1ccccc1)C(=O)CN(C(=O)CN(CCCCN)C(=O)CN(Cc1ccccc1)C(=O)CN(Cc1ccccc1)C(=O)CNCCCCN)[C@@H](C)c1ccccc1 (H-[Nlys][Nphe][Nphe][Nlys][Nspe][Nspe][Nlys][Nspe][Nspe][Nlys][Nphe][Nphe]-NH2)	6.3 (≈ 11.1 µg/mL)	3.1 (≈ 5.47 µg/mL)	12.5	29	60.9	22.3	83	3.5
C[C@@H](c1ccccc1)N(CC(=O)N(CCCCN)CC(=O)N(CC(=O)N(CC(=O)N(CCCCN)CC(=O)N(CC(=O)N(CC(=O)N(CCCCN)CC(=O)N(CC(=O)N(CC(N)=O)Cc1ccccc1)Cc1ccccc1)Cc1ccccc1)Cc1ccccc1)Cc1ccccc1)Cc1ccccc1)C(=O)CN(Cc1ccccc1)C(=O)CNCCCCN (H-[Nlys][Nphe][Nspe][Nlys][Nphe][Nphe][Nlys][Nphe][Nphe][Nlys][Nphe][Nphe]-NH2)	12.5 (≈ 21.5 µg/mL)	6.3 (≈ 10.8 µg/mL)	0.21	3.75	13.7	81.3	> 100	6.5
C[C@@H](c1ccccc1)N(CC(=O)N(CCCCN)CC(=O)N(CC(=O)N(CC(=O)N(CCCCN)CC(=O)N(CC(=O)N(CC(=O)N(CCCCN)CC(=O)N(CCc1c[nH]c2ccccc12)CC(=O)N(CCc1c[nH]c2ccccc12)C[C@H](N)C(=O)NCC(=O)N[C@@H](Cc1c[nH]cn1)C(N)=O)[C@@H](C)c1ccccc1)[C@@H](C)c1ccccc1)[C@@H](C)c1ccccc1)[C@@H](C)c1ccccc1)C(=O)CN(C(=O)CNCCCCN)[C@@H](C)c1ccccc1 (H-[Nlys][Nspe][Nspe][Nlys][Nspe][Nspe][Nlys][Nspe][Nspe][Nlys][Gly(N(CH2)2(3-indolyl))]-X3)	6.3 (≈ 13.4 µg/mL)	1.6 (≈ 3.39 µg/mL)	11.1	20.3	29	25.4	> 100	4
C[C@@H](c1ccccc1)N(CC(=O)N(CCCCN)CC(=O)N(CC(=O)N(CC(=O)N(CCCCN)CC(=O)N(CC(=O)N(CC(=O)N(CCCCN)CC(=O)N(CCc1c[nH]c2ccccc12)CC(=O)N(CCc1c[nH]c2ccccc12)CC(N)=O)[C@@H](C)c1ccccc1)[C@@H](C)c1ccccc1)[C@@H](C)c1ccccc1)[C@@H](C)c1ccccc1)C(=O)CN(C(=O)CNCCCCN)[C@@H](C)c1ccccc1 (H-[Nlys][Nspe][Nspe][Nlys][Nspe][Nspe][Nlys][Nspe][Nspe][Nlys][Gly(N(CH2)2(3-indolyl))][Gly(N(CH2)2(3-indolyl))]-NH2)	6.3 (≈ 12 µg/mL)	1.6 (≈ 3.04 µg/mL)	29.9	50.7	69.4	7.7	63.8	1.2
C[C@@H](c1ccccc1)N(CC(N)=O)C(=O)CN(CCCCN)C(=O)CN(C(=O)CN(C(=O)CN(CCCCN)C(=O)CN(C(=O)CN(C(=O)CN(CCCCN)C(=O)CN(C(=O)CN(C(=O)CNCCCCN)[C@@H](C)c1ccccc1)[C@@H](C)c1ccccc1)[C@@H](C)c1ccccc1)[C@@H](C)c1ccccc1)[C@@H](C)c1ccccc1)[C@@H](C)c1ccccc1 (H-[Nlys][Nspe][Nspe][Nlys][Nspe][Nspe][Nlys][Nspe][Nspe][Nlys][Nspe]-NH2)	6.3 (≈ 10.4 µg/mL)	1.6 (≈ 2.65 µg/mL)	40.3	97.6	96.5	9.64	28.3	1.5
C[C@@H](c1ccccc1)N(CC(=O)NC[C@H](N)C(=O)NCC(=O)N[C@@H](Cc1c[nH]cn1)C(N)=O)C(=O)CN(CCCCN)C(=O)CN(C(=O)CN(C(=O)CN(CCCCN)C(=O)CN(C(=O)CN(C(=O)CN(CCCCN)C(=O)CN(C(=O)CN(C(=O)CNCCCCN)[C@@H](C)c1ccccc1)[C@@H](C)c1ccccc1)[C@@H](C)c1ccccc1)[C@@H](C)c1ccccc1)[C@@H](C)c1ccccc1)[C@@H](C)c1ccccc1 (H-[Nlys][Nspe][Nspe][Nlys][Nspe][Nspe][Nlys][Nspe][Nspe][Nlys][Nspe]-X1)	12.5 (≈ 24.2 µg/mL)	12.5 (≈ 24.2 µg/mL)	0.04	6.22	19.1	62.6	> 100	5
C[C@@H](c1ccccc1)N(CC(=O)NCC(=O)NC[C@H](N)C(=O)NCC(=O)N[C@@H](Cc1c[nH]cn1)C(N)=O)C(=O)CN(CCCCN)C(=O)CN(C(=O)CN(C(=O)CN(CCCCN)C(=O)CN(C(=O)CN(C(=O)CN(CCCCN)C(=O)CN(C(=O)CN(C(=O)CNCCCCN)[C@@H](C)c1ccccc1)[C@@H](C)c1ccccc1)[C@@H](C)c1ccccc1)[C@@H](C)c1ccccc1)[C@@H](C)c1ccccc1)[C@@H](C)c1ccccc1 (H-[Nlys][Nspe][Nspe][Nlys][Nspe][Nspe][Nlys][Nspe][Nspe][Nlys][Nspe]G-X1)	12.5 (≈ 24.9 µg/mL)	12.5 (≈ 24.9 µg/mL)	2.02	8.79	23.2	51.1	> 100	4

— ChEMBL document CHEMBL5584354, “Impact of Conjugation of the Reactive Oxygen Species (ROS)-Generating Catalytic Moiety with Membrane-Active Antimicrobial Peptoids: Promoting Multitarget Mechanism and Enhancing Selectivity” (J Med Chem, 2024)
